According to patent US8822433B2, “Complex combining an organic silicon derivative with hyaluronic and acid calibrated fragments, for preventive and repairing action of cutaneous damages” (Exsymol S.A.M., priority 2008, dated 2014):

What was measured:
[1] = tested on: reconstructed human epidermis model (RHE) keratinocytes; assay: Ki67 immunotracking of cell proliferation on reconstructed human epidermis (tests 1 and 4); format: cell-based; settings: for % cells expressing Ki67/number of total cells (% in relation to the control): vs PBS control
Experimental: (§1) As purely an indication, the invention is hereafter illustrated by the following tests above described in the specification (tests 1 to 3), and a comparative study (test 4). In tests 1, 2 and 4, the experimental studies have been carried out on a reconstructed human epidermis model (RHE, supplier: SkinEthic®) whose interest is a strong homology with human epidermis.
(§2) The culture of RHE consisted in placing them in a “MCDB 153” growth medium (supplier : SkinEthic®) containing […] of insulin, 1.5 mM of CaCl2 and […] of gentamycine, for 24 hours at 37° C. and 5% CO2.
The observation of cellular proliferation is achieved with the immunotracking technique (Gerdes and al., Int. J. Cancer (1983), vol. 31, pp. 13-20) by using the “Ki67” cell proliferation tracer, for the three following configurations (after a 100 1 twice-daily deposit on RHE): • case 1: PBS buffer solution (control) • case 2: HA fragments 150-600 kDa (concentrations 2 and 5%) • case 3: MSH complex (concentrations 2 and 5%)
Identically to the here-above test 1, keratinocytes' cellular proliferation is observed on reconstructed human epidermis RHE (with the immunotracking technique) for: • the MSH complex according to the invention (based on 150-600 kDa HA fragments) • the dimethylsilanediol hyaluronate marketed by the applicant under the “D.S.H. CN®” brand mark. • D.S.H. CN® is an organo-silicon product resulting from the combination of dimethylsilanediol with hyaluronic acid of high molecular weight (1500 to 2200 kDa HA fragments).

IL1α = assay: ELISA dosage of pro-inflammatory interleukin IL1 in RHE culture supernatant (test 2); format: cell-based, human; settings: for IL1α quantity: RHE supernatant after 24 hours of treatment
Experimental: as §1, §2
(§3) The culture of RHE is identical to the one of the herebefore test 1. The dosage of the IL1 and IL8 pro-inflammatory interleukines is achieved on a supernatant resulting from culture medium after 24 hours of treatment, with the help of ELISA dosage kits (R&D System Quantikine Immunoassay, D800C, DTA00C and DLA50), and for identical configurations to those of the above test 1.

IL8 = assay: ELISA dosage of pro-inflammatory interleukin IL8 in RHE culture supernatant (test 2); format: cell-based, human; settings: for IL8 quantity: RHE supernatant after 24 hours of treatment
Experimental: as §1, §2, §3

bovine hyaluronidases = assay: Deterioration kinetic with hyaluronidases, agarose gel electrophoresis (test 3); format: in vitro ADME; settings: 5, 15 and 30 min reaction at 37° C.; compared to fragmented HA non combined
Experimental: The experimental study consisted in measuring the deterioration kinetic of the MSH complex according to the invention submitted in vitro to bovine hyaluronidases, by electrophoresis on agarose gel. 10 1 of 1 mg/ml hyaluronidases are mixed to 50 1 of complex in a PBS buffer solution during 30 minutes at 37° C.
Successively at 5, 15 and 30 minutes, 10 1 of reaction mixture are taken, then heated at 95° C. in order to stop the enzymatic reaction. These 10 1 are then deposited on an agarose gel and a suitable stain (Stains all®) is used for the electrophoresis disclosure.

Substance: monomethylsilanetriol combined with one or several hyaluronic acid fragments of molecular weight between 150 and 600 kDa [MSH complex]
- cytostimulation ([1]; compared to non combined fragmented HA): potentiated cytostimulation
- % cells expressing Ki67/number of total cells (% in relation to the control) ([1]; concentration 2.5%, twice-daily deposit, three independent experiments): +14 (±1.0) %
- % cells expressing Ki67/number of total cells (% in relation to the control) ([1]; concentration 5%, twice-daily deposit, three independent experiments): +63 (±0.5) %
- % cells expressing Ki67/number of total cells (% in relation to the control) ([1]; test 4 (Table 4), concentration 5%): +69.5 (±3.1) %
- induction of pro-inflammatory cytokines (IL1α; RHE, 24 hours, compared with control, IL1 and IL8): No significant induction
- IL1α quantity (IL1α; concentration 2.5%): 3.5 (±1.8) pg/ml
- IL1α quantity (IL1α; concentration 5%): 3.4 (±0.8) pg/ml
- IL8 quantity (IL8; concentration 2.5%): 20.1 (±7.2) pg/ml
- IL8 quantity (IL8; concentration 5%): 34.8 (±13.7) pg/ml
- IL8 type-interleukines' rate (IL8; in relation to the control and to the non combined HA fragment): reduction
- distribution of HA with a high molecular weight after hyaluronidase treatment (bovine hyaluronidases): more important distribution of HA with a high molecular weight
